Values joined by “and” are separate entries in the source; they are usually repeats but may differ in a detail not shown here. Equal values may be shown once.
How the values were obtained:
Assay type in all cases: cell-based, human
[1] = test system: Leukemia subpanel; assay: NCI60 five-dose, subpanel I; settings: for GI50: Homo sapiens, read-out: MG-MID (GI50); for GI50 / MG-MID (TGI): subpanel I
Description: (§1) (2) The molar concentration of the compound responsible for total growth inhibition, also known as total growth inhibition (TGI).
(§2) Regarding subpanel selectivity toward certain cancer type, the method of determining a compound's selectivity index is to divide the full panel MG-MID (μM) value by each single subpanel. Values above six indicate high selectivity against the subpanel; moderate selectivity is denoted by values between three and six. Conversely, compounds are termed nonselective if their selectivity is less than three.[30,37]

[2] = test system: non-small cell lung cancer subpanel; assay: NCI60 five-dose, subpanel II; settings: for GI50: Homo sapiens, read-out: MG-MID (GI50); for GI50 / MG-MID (TGI): subpanel II; for Selectivity index (GI50) / Selectivity index (TGI): full panel MG-MID / subpanel II
Description: as §1, §2

[3] = test system: breast cancer subpanel; assay: NCI60 five-dose, subpanel IX; settings: for GI50: Homo sapiens, read-out: MG-MID (GI50); for GI50 / MG-MID (TGI): subpanel IX; for Selectivity index (GI50) / Selectivity index (TGI): full panel MG-MID / subpanel IX
Description: as §1, §2

[4] = test system: active caspase-3 in Colo 205 cells; assay: Caspase-3 ELISA; settings: for Caspase 3: Colo_205, treated at IC50
Description: Among the death proteases, the caspases family of cysteine-dependent aspartate-directed proteases is significant. There are multiple levels where caspase activation and activity are regulated.[43] Caspases are activated during apoptosis, which eventually results in cell death by deactivating a number of signals.[44] One of the crucial survival signals, EGFR, may be the target of caspase activation to ensure the completion of apoptosis.[45] Additionally, it has been reported that activating caspase-3 through COX-2 inhibition enhances apoptosis.[40] Therefore, the impact of the novel compounds on the level of caspase 3 was examined.
(1) Into the antibody coated wells add 100 μl of standard diluent buffer excepts wells wich detected to be the chromogen blank, then add 100 μl. […] (10) Decant liquid from wells then wash, (11) pipette 100 μl of chromogen substrate to all wells, The well fluid will start to become blue. (12) 30 minutes should be spent incubating at room temperature in the dark. (13) To each well, add 100 μl of stop solution. To mix, lightly tap the plate's edge. The well solution should transform from blue to yellow. (14) Read the absorbance of each well using a microtiter plate reader at 450 nm. (15) Draw the standard curve using a curve fitting program. (16) The standard curve can be used to determine the concentrations for unknown samples and controls.[55]

For `N#Cc1c(-c2ccc(F)cc2)nc(SCc2ccccc2)nc1N1CCNCC1` [4e, 2-(Benzylthio)-4-(4-fluorophenyl)-6-(piperazin-1-yl) pyrimidine-5-carbonitrile], the GI50 [1] was 5.59 µM, the “Selectivity index (GI50)” value ([1]; full panel MG-MID / subpanel I) was 1.90 and the “MG-MID (TGI)” value [1] was 16.17 µM. The GI50 [2] was 11.2 µM, the “Selectivity index (GI50)” value [2] was 0.95 and the “Selectivity index (TGI)” value [2] was 0.92. The “MG-MID (TGI)” value [2] was 25.67 µM, the GI50 [3] was 9.57 µM and the “Selectivity index (GI50)” value [3] was 1.11. The “Selectivity index (TGI)” value [3] was 0.98, the “MG-MID (TGI)” value [3] was 23.96 µM and the “Caspase 3” value [4] was 808.9 ± 11.9 pg·mL.
`N#Cc1c(-c2ccc(F)cc2)nc(SCc2ccc(F)cc2)nc1N1CCNCC1` [4f, 2-((4-Fluorobenzyl)thio)-4-(4-fluorophenyl)-6-(piperazin-1-yl) pyrimidine-5-carbonitrile] was tested, and the GI50 [1] was 7.63 µM, the “Selectivity index (GI50)” value ([1]; full panel MG-MID / subpanel I) was 1.76 and the “Selectivity index (TGI)” value ([1]; full panel MG-MID / subpanel I) was 1.21. For the same molecule, the “MG-MID (TGI)” value [1] was 21.84 µM, the GI50 [2] was 13.7 µM and the “Selectivity index (GI50)” value [2] was 0.98. The “Selectivity index (TGI)” value [2] was 0.91, the “MG-MID (TGI)” value [2] was 28.83 µM and the GI50 [3] was 11.8 µM. The “Selectivity index (GI50)” value [3] was 1.14, the “Selectivity index (TGI)” value [3] was 0.98 and the “MG-MID (TGI)” value [3] was 26.88 µM. The “Caspase 3 fold vs control” value ([4]; Colo 205, treated at IC50) was 8 fold and 7.88 fold and the “Caspase 3” value [4] was 656.4 ± 13.1 pg·mL.

Source: paper PMC10620772, “Design, synthesis, and biological evaluation of new pyrimidine-5-carbonitrile derivatives as novel anti-cancer, dual EGFR^WT/COX-2 inhibitors with docking studies” (RSC Advances, 2023)
